Assay results from patent US6821999B2 (priority 2001, dated 2004).
Read-outs that look alike come from different tables or passages of the source.

Assays:
Assay type in all cases: cell-based, Staphylococcus aureus
S. aureus (MN8) = conditions: for TSST-1 produced compared to the control: S. aureus MN8, in the presence of the compound
S. aureus FRI-1169 = conditions: S. aureus FRI-1169, in the presence of triclosan
S. aureus FRI-1187 = conditions: S. aureus FRI-1187, in the presence of triclosan

| SMILES | TSST-1 produced compared to the control (S. aureus (MN8)) | Reduction of Toxin (%) (S. aureus (MN8); S. aureus MN8, test compound 0.01 μg/mL, 24 h, vs methanol control) | TSST-1 produced compared to the control (S. aureus FRI-1169) | TSST-1 produced compared to the control (S. aureus FRI-1187) | Reduction of Toxin (%) (S. aureus (MN8)) | reduced the amount of toxin produced (S. aureus (MN8)) | Reduction of Toxin (%) (S. aureus (MN8); S. aureus MN8, test compound 2 μg/mL, 24 h, vs methanol control) |
| --- | --- | --- | --- | --- | --- | --- | --- |
| Oc1cc(Cl)ccc1Oc1ccc(Cl)cc1Cl [Triclosan, triclosan] | significantly less | 88 | produced less TSST-1 | produced less TSST-1 | – | – | – |
| Oc1ccc(Cc2ccccc2)cc1 [4-Hydroxydiphenyl-methane, 4-hydroxydiphenyl methane] | – | – | – | – | 24 | about 24% | – |
| Oc1c(Cl)cc(Cl)c(Cl)c1Cc1c(O)c(Cl)cc(Cl)c1Cl [Hexachlorophene, hexachlorophene] | significantly less | – | – | – | – | – | 68 |
